{"source": "patent US20260018245A1", "about": "“SYSTEMS AND METHODS FOR IDENTIFYING AND TARGETING COLLATERAL LETHAL GENES” (The Regents of the University of Michigan, priority 2022, published 2026)", "format_in_all_cases": "cell-based", "key": {"[1]": {"tested_on": "isogenic SKOV3 cells (shScramble, shUQCR11)", "assay": "Nucleotide profiling after MTHFD2 inhibitor vs vehicle", "from_the_text": "FIG. 14 Analysis of global metabolomics and nucleotide pathways of ovarian cancer lines with and without UQCR11 deletion. (a) Pathway enrichment analysis using metabolic pathways in the KEGG database comparing UQCR11-intact and -null ovarian cancer lines from the CCLE panel (n=50). Pathway coverage represents fraction of metabolites in the KEGG pathway that have available data. Data analyzed using weighted z-test for pathway analysis built into MetaboAnalyst 5.0. (b) Pathway enrichment analysis on all metabolite concentrations measured in SKOV3 (UQCR11-intact) and OVCAR8, HeyA8 and CAOV3 (UQCR11-null) cells for metabolites involved in nucleotide metabolism. Pathway coverage, that is, percentage of metabolites measured from each pathway are represented by a gradient color-scale. […] Data analyzed using weighted z-test for pathway analysis built into MetaboAnalyst 5.0. […] Data are combined from two independent experiments and analyzed using two-sample t-tests corrected for multiple hypothesis testing, built into MetaboAnalyst 5.0. […] (d) Metabolites involved in pyrimidine synthesis and salvage are measured in SKOV3 (UQCR11-intact) and OVCAR8, HeyA8 and CAOV3 (UQCR11-null) cells and overlaid onto the pyrimidine metabolic pathway map. […] Data are combined from two independent experiments and analyzed using two-sample t-tests corrected for multiple hypothesis testing, built into MetaboAnalyst 5.0 (n=6). […]"}, "[2]": {"tested_on": "parental ovarian cancer lines and isogenic SKOV3 lines", "assay": "Viability with MTHFD2 inhibitor and uridine supplementation", "conditions": "UQCR11-null parental and SKOV3 shUQCR11 cells compared with UQCR11-intact cells", "method": "(§1) FIG. 15 Investigating metabolic consequence of Complex III impairment and activity of paralogous pathways other than oxidative MTHFD2. (a) Effect of MTHFD2 inhibitor ([…]) and uridine (50 μM) supplementation on viability of parental ovarian cancer lines that are UQCR11—intact (SKOV3) or UQCR11-null (HeyA8, OVCAR8, CAOV3). Data are representative of two independent experiments and presented as mean±s.d. (n=6). Data analyzed with one-way ANOVA with Tukey's correction for multiple comparisons. (b) Effect of MTHFD2 inhibitor and uridine supplementation on viability of isogenic SKOV3 lines expressing shScramble or shUQCR11. […] Data analyzed with one-way ANOVA with Tukey's correction for multiple comparisons. […] (n=6) and analyzed using two-tailed Student's t-test. (d) mRNA expression of NNT, IDH2, IDH3A measured via qRT-PCR after knocking down with shNNT, shIDH2, and shIDH3A, relative to scramble shRNA (shScr), verifying knockdown efficiency in SKOV3 and OVCAR8 cell-lines. […] Data analyzed using unpaired two-tailed Student's t-test. […] Data are analyzed using ordinary one-way ANOVA with multiple comparisons. […] Loss of viability calculated by comparing respective viability in vehicle control-treated cells to MTHFD2 inhibitor-treated cells. […] (n=6) and analyzed using ordinary one-way ANOVA with Dunnett's correction for multiple comparisons. Error bars are calculated using propagation of error principles."}, "SKOV3 and OVCAR8 cells": {"tested_on": "SKOV3 and OVCAR8 cells", "assay": "MTHFD2 inhibitor in cells with NNT, IDH2 or IDH3A knocked down", "conditions": "IDH2 or IDH3A knockdown, UQCR11-intact or -null cells, 10 μM, 72 h", "method": "as §1"}}}
{"smiles": "Cc1c(N2CCN(C)[C@@H](C)C2)ccc2c3c(c(=O)oc12)CN(C(=O)c1ccc(NS(C)(=O)=O)c(OC(F)(F)F)c1)CC3", "note": "[DS18561882]", "values": [{"measurement": "differentially abundant metabolites (nucleotides)", "setting": "[1]", "value": "three out of 49"}, {"measurement": "proliferation", "setting": "[2]", "value": "suppressed proliferation"}, {"measurement": "effect of MTHFD2 inhibition on viability", "setting": "SKOV3 and OVCAR8 cells", "value": "not influenced"}]}
